Positions of bridges follow the written chain, without caps; N, C: chain ends. Chains are numbered I, II in the order given. No end group written: not given here.

Experiment [1] is described as follows: Heparin binding (heparin affinity chromatography). An excerpt:
The eluted proteins are then contacted with a heparin affinity resin. The ordinarily skilled artisan will readily realize that this step is best achieved in a column chromatography mode. Heparin affinity columns are commercially available from some of the same vendors mentioned above. In this step, the molecules of interest, both MPF-4 or CPF-4, bind to the heparin column and are eluted using an increasing linear salt gradient. The preferred salt is NaCl, and the portion of the gradient that is preferably collected is the 0.1-2.0M portion. The more highly preferred portion of the gradient to collect is the 0.7-2.0M portion.
The C4-pool was further fractionated by heparin affinity chromatography on a Econo-pac™ 5 ml heparin-sepharose cartridge (Biorad, Richmond, Calif. 94804). The bound proteins were eluted by a linear gradient of 0 to 2.0M NaCl in phosphate buffer saline (PBS) at a flow rate of 2.0 ml/min. The proteins that eluted from the column were pooled into three fractions: (1) non-heparin binding (flow through), (2) low-affinity heparin binding (0 to 0.7M NACl), and (3) high-affinity heparin binding (0.7M to 2.0M NACl) fractions.

Experiment [2] concerns primary retinal capillary endothelial cells or bovine heart endothelial cells. As to the kind of experiment: Endothelial cell proliferation inhibition assay. The format is cell-based. The settings on record: for IC50, inhibition of endothelial cell proliferation: endothelial cells with 20 ng/ml fibroblast growth factor, grown four days, cell count, average of 4 wells (FIG. 1); for IC50: same experiment, IC50 restated in nM; for potency of endothelial cell proliferation inhibition compared with PF-4: under identical conditions as PF-4. As for the experimental part: Primary retinal capillary endothelial cell cultures were prepared in substantial accordance with the procedure described in Buzney et al., Retinal Vascular Endothelial Cells and Pericytes: Differential Growth Characteristics in vitro, Invest. Opthalmol. Visual Sci. 24: 470-483 (1983) and separated from contaminating cells as described in Voyta et al., Identification and Isolation of Endothelial Cells Based on their Increased Uptake of Acetylated-low density Lipoprotein, J. Cell Biol, 99: 2034-2040 (1981).
Alternatively, bovine heart endothelial cells were obtained (American Type Culture Collection; Rockville Md. 20852) for use in the assay. Irrespective of source, the endothelial cells were seeded into 24 well tissue culture plates at a cell density of 10,000 cells/well in Dulbecco's modified Eagle Medium (GIBCO; Grand Island, N.Y.) supplemented with 5% bovine serum albumin, 1% penicillin-streptomycin, 1% L-glutamine, and 20 ng/ml fibroblast growth factor. Immediately after seeding the cells, various amounts of PF-4 (Sigma Chemical Co.; St. Louis, Mo. 63178), MPF-4 , or CPF-4 (isolated as describe in the above examples) were added to individual growth wells. MPF-4 and CPF-4 were tested at final concentrations ranging from 0.001 to 1 μg/ml. For comparison, native PF-4 was tested over a range of 0.001 to 3 μg/ml, and supplemented medium alone served as the negative control. The endothelial cell cultures were allowed to grow for four days at 37° C., 5% CO2 in a humidified tissue culture incubator. The cultures were then harvested individually by trypsinization and counted using a Zm-Coulter Counter (Coulter Electronics. Inc.; Opa Locka Fla. 33054).
The results were plotted in FIG. 1, and each point on the graph represented the average of 4 data points; ie one growth well per data point.

With “MPF-4: N-terminally processed form of human platelet factor-4, 54 C-terminal residues beginning with Ser-17, SEQ ID NO: 1 (SQVRPRHITSLEVIKAGPHCPTAQLIATLKNGRKICLDLQAPLYKKIIKKLLES)”, in experiment [1], the heparin binding entry is reported as “bind heparin”. In experiment [2], the “IC50, inhibition of endothelial cell proliferation” value (from here on “IC50, inhibition”) was 0.03 to 0.05 µg/mL; the half-inhibitory concentration (IC50) was ~7 nM; the “potency of endothelial cell proliferation inhibition compared with PF-4” value was “more potent inhibitors of endothelial cell proliferation”.

On to “PF-4: Native platelet factor-4 (Sigma Chemical Co.), tested for comparison [reference compound]”, for which, in experiment [2], the “IC50, inhibition” value lay in the range of 0.8 to 1 µg/mL and the concentration for half-maximal inhibition (IC50) was ~130 nM.

B1: CPF-4: Proteolytically cleaved, non-reduced PF-4: 16-residue chain (SEQ ID NO: 2) disulfide bonded to 54-residue chain (SEQ ID NO: 1) (protein)
chain 1: EAEEDGDLQCLCVKTT
chain 2: SQVRPRHITSLEVIKAGPHCPTAQLIATLKNGRKICLDLQAPLYKKIIKKLLES
modifications: disulfide I:10-II:20, I:12-II:36; not fully specified
On to B1, for which the heparin binding result in experiment [1] is listed as “bind heparin”. In experiment [2], the “IC50, inhibition” value is recorded as “approximately 150 ng/ml”; the 50% inhibitory concentration (IC50) is ~20 nM; the “potency of endothelial cell proliferation inhibition compared with PF-4” value is given as “more potent inhibitors of endothelial cell proliferation”.

By IC50 is commonly meant the concentration needed to halve the response being measured.

The record behind these values is US5512550A, “Method for inhibiting angiogenesis with modified platelet factor-4 and cleaved platelet factor-4” (Eli Lilly and Company, priority 1995, dated 1996).
